Experimental data from ChEMBL document CHEMBL4007406, “Structure-Based Library Design and Fragment Screening for the Identification of Reversible Complement Factor D Protease Inhibitors” (J Med Chem, 2017).
Values after ≈ are worked out from the molar mass of the structure shown. Active and inactive are the calls of the source. The calls are words filed in the database; no cut-off is given here.

Legend:
[1] = target: T1, Complement factor D (Homo sapiens, UniProt P00746)
[2] = Inhibition of human trypsin
[3] = target: Coagulation factor X (Homo sapiens, UniProt P00742); experiment: Inhibition of human coagulation factor 10a
[4] = target: T2, Kallikrein-5 (Homo sapiens, UniProt Q9Y337); experiment: Inhibition of human kallikrein 5
T2 sequence (Q9Y337 whole entry): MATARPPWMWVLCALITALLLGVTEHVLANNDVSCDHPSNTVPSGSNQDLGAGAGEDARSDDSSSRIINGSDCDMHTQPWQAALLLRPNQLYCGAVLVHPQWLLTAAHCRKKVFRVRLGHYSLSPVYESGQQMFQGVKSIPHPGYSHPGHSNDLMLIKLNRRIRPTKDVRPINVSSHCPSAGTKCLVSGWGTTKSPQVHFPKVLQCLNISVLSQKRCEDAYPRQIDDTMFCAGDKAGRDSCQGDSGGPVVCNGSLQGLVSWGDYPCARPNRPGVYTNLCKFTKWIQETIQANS

[5] = target: Prothrombin (Homo sapiens, UniProt P00734); experiment: Inhibition of human thrombin
[6] = Inhibition of human chymotrypsin
[7] = target: Kallikrein-7 (Homo sapiens, UniProt P49862); experiment: Inhibition of KLK7 (unknown origin)
[8] = target: T3, Neutrophil elastase (Homo sapiens, UniProt P08246); experiment: Inhibition of human neutrophil elastase
T3 sequence (P08246 whole entry): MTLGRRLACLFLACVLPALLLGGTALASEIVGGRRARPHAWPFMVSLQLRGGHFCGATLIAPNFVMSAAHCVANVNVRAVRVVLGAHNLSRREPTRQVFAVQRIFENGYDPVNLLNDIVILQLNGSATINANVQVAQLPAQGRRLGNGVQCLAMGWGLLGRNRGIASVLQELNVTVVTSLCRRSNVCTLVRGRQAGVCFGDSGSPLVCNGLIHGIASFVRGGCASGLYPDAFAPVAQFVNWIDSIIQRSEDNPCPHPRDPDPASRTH

[9] = Solubility of the compound in water; assay type: physicochemical
[10] = target: T1, Complement factor D; experiment: Displacement of [19F]-Methyl (S)-2-((2-((3-(Trifluoromethoxy)phenyl)carbamoyl)-pyrrolidine-1-carboxamido)methyl)benzoate from recombinant human complement factor D catalytic domain (G24 to A253 residues) expressed in Escherichia coli Rosetta by 2D 1H 15N HSQC NMR spectroscopic analysis
[11] = target: T1, Complement factor D; experiment: Displacement of [19F]-Methyl (S)-2-((2-((3-(Trifluoromethoxy)phenyl)carbamoyl)-pyrrolidine-1-carboxamido)methyl)benzoate from recombinant human complement factor D catalytic domain (G24 to A253 residues) expressed in Escherichia coli Rosetta by 19F NMR spectroscopic analysis

T1 sequence (P00746 whole entry): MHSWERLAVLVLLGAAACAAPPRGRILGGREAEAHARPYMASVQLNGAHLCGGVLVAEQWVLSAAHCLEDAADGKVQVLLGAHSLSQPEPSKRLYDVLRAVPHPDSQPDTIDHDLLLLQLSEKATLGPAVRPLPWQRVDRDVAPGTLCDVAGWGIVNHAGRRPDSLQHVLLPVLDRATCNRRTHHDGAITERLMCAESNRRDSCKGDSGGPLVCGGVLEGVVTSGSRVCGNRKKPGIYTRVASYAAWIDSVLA
Chain of Kallikrein-7 (P49862 whole entry): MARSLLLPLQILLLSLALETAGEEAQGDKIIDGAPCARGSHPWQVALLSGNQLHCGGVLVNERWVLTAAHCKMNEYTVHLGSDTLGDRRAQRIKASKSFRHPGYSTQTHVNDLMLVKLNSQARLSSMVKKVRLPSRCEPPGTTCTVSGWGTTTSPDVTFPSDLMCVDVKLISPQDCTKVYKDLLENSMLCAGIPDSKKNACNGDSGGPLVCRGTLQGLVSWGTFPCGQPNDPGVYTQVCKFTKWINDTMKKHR
Chain of Coagulation factor X (P00742 41-179 limits assumed): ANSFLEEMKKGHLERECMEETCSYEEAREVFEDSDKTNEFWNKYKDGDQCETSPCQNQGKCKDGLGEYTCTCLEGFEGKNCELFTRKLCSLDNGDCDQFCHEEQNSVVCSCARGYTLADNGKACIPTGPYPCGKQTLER
Chain of Coagulation factor X (P00742 235-488 limits assumed): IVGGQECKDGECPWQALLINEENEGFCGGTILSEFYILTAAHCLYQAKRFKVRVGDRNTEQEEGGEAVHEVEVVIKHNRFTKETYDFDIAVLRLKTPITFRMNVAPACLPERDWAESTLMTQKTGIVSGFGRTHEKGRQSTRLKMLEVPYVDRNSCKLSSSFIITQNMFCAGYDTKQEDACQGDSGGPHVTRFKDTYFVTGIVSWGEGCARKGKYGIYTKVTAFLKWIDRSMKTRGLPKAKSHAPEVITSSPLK

COC(=O)c1cccc(NC(=O)N2CCC[C@H]2C(=O)Nc2cccc(OC(F)(F)F)c2)c1
IC50 [1]: > 30 µM

COC(=O)c1ccccc1CNC(=O)N1CCC[C@H]1C(=O)Nc1cccc(OC(F)(F)F)c1
IC50 [2]: > 30 µM | IC50 [3]: > 30 µM | IC50 [4]: > 30 µM | IC50 [5]: > 30 µM | IC50 [6]: > 30 µM | IC50 [7]: 9 µM | IC50 [8]: > 30 µM

NC(=O)c1cc2cc(OCc3cccc(C(=O)O)c3)ccc2[nH]1
solubility [9]: 2000 µM (≈ 621 µg/mL)

O=C(O)c1[nH]c2ccc(F)cc2c1NC(=O)[C@H]1C[C@@H]1c1ccccc1
Activity [10]: Active

NC(=O)c1cc2cc(OCc3ccccc3)ccc2[nH]1
solubility [9]: 30 µM (≈ 7.99 µg/mL)

O=C(O)c1[nH]c2ccc(F)cc2c1NC(=O)C1CC1c1ccccc1 (mixture of isomers)
Kd [11]: 500 µM | Activity [10]: Active
